Results from patent US8524916B2, “Dithiinetetra(thio)carboximides” (Bayer CropScience AG, priority 2010, dated 2013).

How the values were obtained:
Format in all cases: in vivo
Phytophthora infestans = conditions: tomato young plants, protective spray, application rate 250 ppm, evaluation 3 days after inoculation; 0% = control, 100% = no infection
Plasmopara viticola = test: Plasmopara test (grapevine)/protective; conditions: grapevine young plants, protective spray, application rate 250 ppm, evaluation 6 days after inoculation; 0% = control, 100% = no infection
Description: Plasmopara Test (Grapevine)/Protective [table] To produce an appropriate active ingredient formulation, 1 part by weight of active ingredient is mixed with the specified amounts of solvent and emulsifier, and the concentrate is diluted with water to the desired concentration. To test for protective activity, young plants are sprayed with the active ingredient formulation at the stated application rate. After the spray coating has dried on, the plants are inoculated with an aqueous spore suspension of Plasmopara viticola and then remain in an incubation cabin at approx. 20° C. and 100% relative air humidity for 1 day. Subsequently, the plants are placed in a greenhouse at approx. 21° C. and approx. 90% air humidity for 4 days. The plants are then moistened and placed in an incubation cabin for 1 day.

Venturia inaequalis = test: Venturia test (apple)/protective; conditions: apple young plants, protective spray, application rate 250 ppm, evaluation 10 days after inoculation; 0% = control, 100% = no infection
Description: Venturia Test (Apple)/Protective [table] To produce an appropriate active ingredient formulation, 1 part by weight of active ingredient is mixed with the specified amounts of solvent and emulsifier, and the concentrate is diluted with water to the desired concentration. To test for protective activity, young plants are sprayed with the active ingredient formulation at the stated application rate. After the spray coating has dried on, the plants are inoculated with an aqueous conidia suspension of the apple scab pathogen Venturia inaequalis and then remain in an incubation cabin at approx. 20° C. and 100% relative air humidity for 1 day. The plants are then placed in a greenhouse at about 21° C. and a relative air humidity of approx. 90%.

Alternaria solani = test: Alternaria test (tomato)/protective; conditions: tomato young plants, protective spray, application rate 250 ppm, evaluation 3 days after inoculation; 0% = control, 100% = no infection
Description: Alternaria Test (Tomato)/Protective [table] To produce an appropriate active ingredient formulation, 1 part by weight of active ingredient is mixed with the specified amounts of solvent and emulsifier, and the concentrate is diluted with water to the desired concentration. To test for protective activity, young plants are sprayed with the active ingredient formulation at the stated application rate. After the spray coating has dried on, the plants are inoculated with an aqueous spore suspension of Alternaria solani. The plants are then placed in an incubation cabin at approx. 20° C. and 100% relative air humidity.

| Structure (SMILES) | Efficacy (%) (Venturia inaequalis) | Efficacy (%) (Alternaria solani) | also measured |
| --- | --- | --- | --- |
| Cn1c(=O)c2sc3c(=O)n(C)c(=S)c3sc2c1=O [drawing 22] |  |  | Efficacy (%) (Phytophthora infestans): 72% |
| Cn1c(=O)c2sc3c(=O)n(C)c(=S)c3sc2c1=O [drawing 23] |  |  | Efficacy (%) (Plasmopara viticola): 83% |
| Cn1c(=O)c2sc3c(=O)n(C)c(=S)c3sc2c1=O [drawing 24] | 99 |  |  |
| Cn1c(=O)c2sc3c(=S)n(C)c(=O)c3sc2c1=S [drawing 25] | 71 |  |  |
| Cn1c(=O)c2sc3c(=O)n(C)c(=S)c3sc2c1=O [drawing 26] |  | 95 |  |
| Cn1c(=O)c2sc3c(=S)n(C)c(=O)c3sc2c1=S [drawing 27] |  | 76 |  |
